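Values below derive from 48-hour exposures of cells grown in 96-well plates, with endpoints linearly interpolated between the two concentrations bracketing the appropriate inhibition level. The concentration for full growth arrest is given as TGI.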
Experiments:
Test in all cases: DTP human tumour cell line panel, 48 h
[1] = system: A549 NSCLC
[2] = system: SK-MEL-2 melanoma
[3] = system: DU-145 prostate
[4] = system: HOP-62 NSCLC
[5] = system: UO-31 renal
[6] = system: SW-620 colon
[7] = system: LOX IMVI melanoma
[8] = system: EKVX NSCLC
[9] = system: U251 CNS
[10] = system: IGROV1 ovarian
[11] = system: SF-268 CNS
[12] = system: NCI-H522 lung
[13] = system: A498 renal
[14] = system: UACC-62 melanoma
[15] = system: MALME-3M melanoma
[16] = system: SK-MEL-5 melanoma
[17] = system: COLO 205 colon
[18] = system: HOP-92 NSCLC
[19] = system: HCC-2998 colon
[20] = system: OVCAR-3 ovarian

| Compound | TGI [1] | TGI [2] | TGI [3] | TGI [4] | TGI [5] | TGI [6] | TGI [7] | TGI [8] | TGI [9] | TGI [10] | TGI [11] | TGI [12] | TGI [13] | TGI [14] | TGI [15] | TGI [16] | TGI [17] | TGI [18] | TGI [19] | TGI [20] |
| --- | --- | --- | --- | --- | --- | --- | --- | --- | --- | --- | --- | --- | --- | --- | --- | --- | --- | --- | --- | --- |
| COCN1C(=O)[C@@H]2CCCN2C(=O)c2cc(OC)c(Cc3ccccc3)cc21 | > 100 µM | > 100 µM | > 100 µM | > 100 µM | > 100 µM | > 100 µM | > 100 µM | > 100 µM | > 100 µM | > 100 µM | > 100 µM | > 100 µM | > 100 µM | > 100 µM | > 100 µM | – | – | – | – | – |
| COC(=O)C(Cc1ccccc1)NC(=O)CSc1nnc(COc2ccc(Cl)cc2)n1-c1ccccc1 (stereo not drawn) | > 100 µM | 33.2 µM | > 100 µM | 45 µM | 3.34 µM | > 100 µM | 28.3 µM | – | 32.9 µM | > 100 µM | > 100 µM | – | 56.1 µM | 27.9 µM | 42.7 µM | 31.4 µM | 41.8 µM | 76.7 µM | 31.8 µM | – |
| NC(Cc1ccc(CP(=O)(O)O)cc1)C(=O)O (stereo not drawn) | > 100 µM | > 100 µM | > 100 µM | – | > 100 µM | > 100 µM | > 100 µM | > 100 µM | > 100 µM | > 100 µM | > 100 µM | > 100 µM | – | > 100 µM | – | > 100 µM | > 100 µM | > 100 µM | > 100 µM | > 100 µM |
| Cc1nnc2n1N=C(c1cc(F)c(Cl)cc1Cl)/C(=C/c1ccc(-c3ccc([N+](=O)[O-])cc3)o1)S2 | > 100 µM | > 100 µM | – | > 100 µM | > 100 µM | > 100 µM | > 100 µM | > 100 µM | > 100 µM | > 100 µM | > 100 µM | > 100 µM | > 100 µM | > 100 µM | > 100 µM | > 100 µM | > 100 µM | > 100 µM | > 100 µM | > 100 µM |
| COc1ccc(-c2cc(N3CCN(c4ccc(Cl)cc4)CC3)c(C#N)c(=O)o2)cc1 | 32.3 µM | 45.3 µM | – | – | 30.5 µM | > 100 µM | > 100 µM | 41.7 µM | 58.2 µM | 42.4 µM | 33.5 µM | – | 49.4 µM | – | 22.3 µM | 31.3 µM | > 100 µM | > 100 µM | > 100 µM | – |
| CC(=O)CCC#Cc1ccccc1C(=O)C(C)=[N+]=[N-] | > 100 µM | > 100 µM | – | > 100 µM | > 100 µM | > 100 µM | > 100 µM | > 100 µM | > 100 µM | > 100 µM | > 100 µM | – | > 100 µM | 38.7 µM | 84.1 µM | 33.1 µM | 39.6 µM | > 100 µM | > 100 µM | > 100 µM |
| Cc1ccc(-c2n[nH]c(=O)n2/N=C\c2ccccc2O)cc1 | > 100 µM | > 100 µM | > 100 µM | > 100 µM | > 100 µM | > 100 µM | – | > 100 µM | > 100 µM | > 100 µM | > 100 µM | > 100 µM | – | – | > 100 µM | > 100 µM | > 100 µM | > 100 µM | > 100 µM | > 100 µM |

Reference: PubChem BioAssay (NCI)
